From patent publication US11759442B2, “Use of short chain fatty acids for the treatment and prevention of diseases and disorders” (Temple University-Of The Commonwealth System of Higher …, priority 2017, dated 2023)

Tests used:
IL-6 = settings: cited from earlier work
GPR-109a receptor = GPR-109a receptor (Homo sapiens, UniProt Q8TDS4); settings: read-out: EC50 of GPR-109a receptor activation; cited from earlier work
[1] = tested on: ileum inflammatory cytokines; settings: neonatal piglets, oral ~10 ml of 150 mmol/L; cited from earlier work

Chain of GPR-109a receptor (Q8TDS4 whole entry): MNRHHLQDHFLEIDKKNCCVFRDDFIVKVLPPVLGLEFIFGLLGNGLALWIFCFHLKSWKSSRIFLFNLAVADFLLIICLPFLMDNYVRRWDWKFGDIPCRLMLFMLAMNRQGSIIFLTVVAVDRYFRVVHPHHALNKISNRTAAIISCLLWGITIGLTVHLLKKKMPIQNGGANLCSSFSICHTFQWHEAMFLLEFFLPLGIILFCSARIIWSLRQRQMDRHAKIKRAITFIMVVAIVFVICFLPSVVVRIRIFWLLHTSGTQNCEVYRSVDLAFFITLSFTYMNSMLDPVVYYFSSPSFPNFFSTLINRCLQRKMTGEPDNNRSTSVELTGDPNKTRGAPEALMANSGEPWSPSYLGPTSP

Structure (SMILES): CCC(=O)O [propionate]
- effect on IL-6 (IL-6): inhibit IL-6

Structure (SMILES): CCCC(=O)O [butyrate]
- EC50 (GPR-109a receptor): ~1.5 mM
- re-emergence of psoriasis on left elbow after ceasing the regimen (psoriasis skin lesions; FIG. 2 patient, one 600 mg pill 3 times daily for 16 days, then stopped): 20 days
- time until psoriasis came back after stopping the regimen (psoriasis skin lesions; FIG. 5 fourth patient): 20 to 25 days
- side effects during treatment (psoriasis skin lesions; FIG. 5 fourth patient, treatment for long period of time): no side effects were noted

Structure (SMILES): CCCC(=O)[O-].[Na+] [sodium butyrate]
- effect on ileum inflammatory cytokines [1]: modulated the ileum inflammatory cytokines
